In PMC10578347 (Journal of Medicinal Chemistry, 2023):
Entries after “also recorded” stand apart in the source; their conditions may differ.

Tests used:
Nurr1 LBD [1] = conditions: cited from earlier work
[2] = test system: TH, VMAT2, SOD1/2 mRNA expression in N27 rat dopaminergic neural cells; type: cell-based
HEK293T cells = experiment: WST-8 cytotoxicity assay; type: cell-based; conditions: stable Renilla luciferase activity and WST-8 assay; 100 μM
Nurr1 LBD [3] = target: Nurr1 LBD (Homo sapiens, UniProt P43354); experiment: Isothermal titration calorimetry; type: binding; conditions: ITC, 25 °C, recombinant Nurr1 LBD
[4] = test system: TH and VMAT2 mRNA expression in T98G cells; type: cell-based, human
NOR-1 (NR4A3) = target: T1, NOR-1 (NR4A3) (Homo sapiens, UniProt Q92570); type: cell-based
T1 sequence (Q92570 394-623 limits assumed): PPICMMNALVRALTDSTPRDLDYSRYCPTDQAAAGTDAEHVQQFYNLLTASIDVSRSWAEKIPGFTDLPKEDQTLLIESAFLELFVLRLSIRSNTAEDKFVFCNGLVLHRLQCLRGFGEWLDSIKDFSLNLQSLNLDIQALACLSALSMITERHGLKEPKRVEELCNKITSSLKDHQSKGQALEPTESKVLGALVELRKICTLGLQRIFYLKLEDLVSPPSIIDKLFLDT

Nur77 (NR4A1) = Nur77 (NR4A1) (Homo sapiens, UniProt P22736); type: cell-based
[5] = test system: nuclear receptors outside the NR4A family (THRα, RARα, PPARγ, revERBα, RORγ, VDR, LXRα, FXR, RXRα); type: cell-based
[6] = Glutathione reactivity assay; type: physicochemical; conditions: 125 μM compound, 2.5 mM GSH in PBS at 37 °C, up to 24 h

Nur77 (NR4A1), sequence (P22736 360-595 limits assumed, species assumed): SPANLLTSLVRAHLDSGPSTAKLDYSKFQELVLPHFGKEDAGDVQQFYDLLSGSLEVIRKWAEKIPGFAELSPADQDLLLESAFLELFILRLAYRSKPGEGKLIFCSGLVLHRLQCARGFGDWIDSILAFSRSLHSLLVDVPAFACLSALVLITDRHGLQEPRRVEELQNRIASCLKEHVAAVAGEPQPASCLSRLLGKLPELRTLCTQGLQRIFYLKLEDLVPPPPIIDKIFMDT
Nurr1 LBD (Homo sapiens, UniProt P43354), sequence (P43354 360-598): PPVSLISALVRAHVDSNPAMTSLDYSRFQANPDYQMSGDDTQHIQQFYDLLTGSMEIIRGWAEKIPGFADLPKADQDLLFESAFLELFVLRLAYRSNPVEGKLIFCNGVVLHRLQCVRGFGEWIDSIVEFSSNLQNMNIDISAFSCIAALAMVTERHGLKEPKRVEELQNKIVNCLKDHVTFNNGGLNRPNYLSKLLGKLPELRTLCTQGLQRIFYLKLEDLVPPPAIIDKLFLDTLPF

| SMILES | TH, VMAT, SOD1/2 expression [2] | effect on cell viability (HEK293T cells) | Kd (Nurr1 LBD [3]) | other results |
| --- | --- | --- | --- | --- |
| Clc1ccc2[nH]ccc2c1 [2b, 5-chloro-1H-indole] | induced | – | – | Kd (Nurr1 LBD [1]): 15 µM |
| CC(C)N1CCC(NC(=O)c2cc3[nH]ccc3cc2Cl)CC1 [5e] | – | no pronounced effect on cell viability | no detectable interaction; also recorded: no binding^c | – |
| CC1CCN(CCCNC(=O)c2cc3[nH]ccc3cc2Cl)CC1 [5m] | – | no pronounced effect on cell viability | no detectable interaction; also recorded: no binding^c | – |
| CN(C)CCOc1ccc(Cl)cc1NC(=O)c1cc2[nH]ccc2cc1Cl [5o, 5-Chloro-N-{5-chloro-2-[2-(dimethylamino)ethoxy]phenyl}-1H-indole-6-carboxamide] | induced | no pronounced effect on cell viability | – | Nurr1-regulated mRNA expression of TH and VMAT2 [4]: induced; activity on NOR-1 (NR4A3) (NOR-1 (NR4A3)): preference for Nurr1 over the related NR4A receptors; also recorded: no NOR-1 (NR4A3) activation; activity on Nur77 (NR4A1) (Nur77 (NR4A1)): preference for Nurr1 over the related NR4A receptors; also recorded: preference of 5o for Nurr1 over Nur77; modulation of nuclear receptors outside the NR4A family [5]: did not modulate; also recorded: No nuclear receptor modulation; stability against reaction with glutathione (GSH) [6]: stable; also recorded: High stability |
| O=C(NCCN1CCC2CCCCC2C1)c1cc2[nH]ccc2cc1Cl (centres unmarked) [5r] | – | no pronounced effect on cell viability | – | – |
| CCN(CC)C1CCC(NC(=O)c2cc3[nH]ccc3cc2Cl)CC1 (centres unmarked) [5t] | – | no pronounced effect on cell viability | no detectable interaction; also recorded: no binding^c | – |
| CCCCN1CCC(CNC(=O)c2cc3[nH]ccc3cc2Cl)C1 (centres unmarked) [5v] | – | no pronounced effect on cell viability | – | – |
| Oc1cc2cc[nH]c2cc1O [DHI (2a), 5,6-dihydroxyindole] | generally weaker effects | – | – | TH expression [2]: downregulated |
| CN(C)CCOc1ccc(Cl)cc1Nc1ccnc2cc(Cl)ccc12 [compound 13, 7-Chloro-N-{5-chloro-2-[2-(dimethylamino)ethoxy]phenyl}quinolin-4-amine] | induced | – | – | activity on NOR-1 (NR4A3) (NOR-1 (NR4A3)): preference over NOR-1; also recorded: less active on NOR-1; activity on Nur77 (NR4A1) (Nur77 (NR4A1)): activated Nurr1 and Nur77 with equal potency; modulation of nuclear receptors outside the NR4A family [5]: did not modulate; also recorded: No nuclear receptor modulation |
